Measurements as given in PMC9419992 (Organic letters, 2022).

What was measured:
[1] = molecular target: T1, LXRβ [NR1H2] ligand binding domain (Homo sapiens, UniProt P55055); experiment: Radioligand binding assay with 3H-T0901317, LXRβ ligand binding domain
T1 sequence (P55055 222-460 limits assumed): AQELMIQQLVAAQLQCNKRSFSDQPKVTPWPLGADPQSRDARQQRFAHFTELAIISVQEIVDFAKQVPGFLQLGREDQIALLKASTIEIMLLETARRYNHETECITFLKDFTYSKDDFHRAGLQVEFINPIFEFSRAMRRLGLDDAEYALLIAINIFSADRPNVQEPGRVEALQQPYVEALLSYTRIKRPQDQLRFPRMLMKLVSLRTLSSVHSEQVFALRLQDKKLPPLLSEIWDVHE

[2] = tested on: ABCA1 expression (LXR target gene) in THP-1 cells; experiment: Expression of LXR target gene ABCA1 in THP-1 monocytic cell line; assay type: cell-based, human; settings: compound at 10 μM
[3] = molecular target: T2, LXRα [NR1H3] ligand binding domain (Homo sapiens, UniProt Q13133); experiment: Radioligand binding assay with 3H-T0901317, LXRα ligand binding domain
T2 sequence (Q13133 209-447 limits assumed): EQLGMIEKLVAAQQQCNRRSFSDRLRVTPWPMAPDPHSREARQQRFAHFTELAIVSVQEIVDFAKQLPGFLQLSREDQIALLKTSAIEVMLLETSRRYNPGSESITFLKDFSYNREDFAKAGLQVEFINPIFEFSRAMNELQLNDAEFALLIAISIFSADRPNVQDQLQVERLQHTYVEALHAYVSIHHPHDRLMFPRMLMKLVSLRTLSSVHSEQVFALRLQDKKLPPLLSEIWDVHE

Structure (SMILES)	Ki [1] [µM]	ABCA1 expression [2]	Ki [3] [µM]
C[C@H](CCCC(C)(C)O)[C@H]1CC[C@H]2[C@@H]3CC=C4C[C@@H](O)CC[C@]4(C)[C@H]3CC[C@]12C [25-hydroxycholesterol]	6.9	increased the expression of ABCA1 as well, albeit at lower levels than T0901317	4
O=S(=O)(c1ccccc1)N(CC(F)(F)F)c1ccc(C(O)(C(F)(F)F)C(F)(F)F)cc1 [Compound T0901317, T0901317]	–	increasing the expression of ABCA1	–
